Assay results: patent US6998470B1, “Process for large-scale isolation and purification of hypothalamic inhibitory factor” (Bion, Inc., priority 1997, dated 2006)

Tests used:
[1] = biological target: T1, monoclonal antibody 26-10 (Mus musculus, UniProt P01631); assay: 125I competition plate assay using goat-anti-mouse IgG Fab to bind the antibodies; design: species or system mice; settings: read-out: relative affinity (IC50); binding to anti-digoxin mAb 26-10
T1 construct: fused on or other part: Heavy chain of mAb 26-10 (A/J mouse), which forms most of the digoxin/ouabain pocket
T1 sequence (P01631 whole entry, the tested form may be a part): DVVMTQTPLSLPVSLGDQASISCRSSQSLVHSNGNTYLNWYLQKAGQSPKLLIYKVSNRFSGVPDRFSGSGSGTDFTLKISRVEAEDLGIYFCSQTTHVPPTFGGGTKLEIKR
Source text: (§1) Several available anti-digoxin antibodies were studied to determine relative affinity for ouabain.
Monoclonal antidigoxin antibody 26-10 was obtained from A/J mice immunized with a digoxin-human serum albumin (Dig-HSA) conjugate and spleen cells were fused with the non-secreting murine myeloma Sp2/0 cell line (Mudgett-Hunter, M., et al. J. Immunol., 129:1165–1172 (1982)). Hybridoma cells identified by radioimmunoassay (RIA) as secreting anti-digoxin antibody were cloned and grown in tissue culture and amplified in the ascites form in mice. Digoxin specific hybridoma proteins were purified from ascites by a variety of chromatographic methods, including ion-exchange chromatography on DEAE cellulose and affinity chromatography on Digoxin-BSA-Sepharose or ouabain-amine Sepharose.

purified Na, K-ATPase = settings: Haupert et al. 1984; read-out: affinity constant for binding to purified Na, K-ATPase; cited from earlier work
[2] = tested on: Na+-K+-ATPase pump activity in human erythrocytes; assay: standard human erythrocyte 86Rb+ uptake assay; format: cell-based; settings: RBC 86Rb+ uptake assay
Source text: As defined herein, purified HIF refers to HIF which is substantially free of or isolated from other tissue or fluid protein components and contaminants. In addition, the purified HIF of the present invention has at least 40% activity recovery. Preferably, the purified HIF has about 50–75% activity recovery, more preferably the purified HIF has about 75–90% activity recovery and most preferably, the purified HIF has about 90–95% activity recovery. As defined herein, “activity recovery” of HIF is the activity of HIF as measured indirectly by, for example a biological assay such as specific inhibition of Na^+-K^+-ATPase pump activity in human erythrocytes, or as measured directly, for example, by UV absorbance following HPLC chromatography.
as §1

SMILES: C[C@@H]1O[C@@H](O[C@H]2C[C@@H](O)[C@]3(CO)[C@H]4[C@H](O)C[C@]5(C)[C@@H](C6=CC(=O)OC6)CC[C@]5(O)[C@@H]4CC[C@]3(O)C2)[C@H](O)[C@H](O)[C@H]1O [ouabain]
- IC50 [1]: 300 nM
- Kd (purified Na, K-ATPase): ~1 nM
- amount equal to 1 U (1 U=50% inhibition under standard conditions) [2]: approximately 0.75 pmol
